According to patent US20260327204A1, “DEGRADERS OF CYCLIN-DEPENDENT KINASE 12/13, COMPOSITIONS, AND USES THEREOF” (ZHEJIANG UNIVERSITY, priority 2023, published 2026):

Key:
Format in all cases: cell-based
Set-up in all cases: degradation of CDK12/13 protein in leukemia cells KASUMI-1, MV4-11, and Jurkat; endogenous in cells
CDK12 [1] = molecular target: T1, CDK12 (Homo sapiens, UniProt Q9NYV4); assay: Western blot degradation of CDK12 (Example 3); conditions: DC50 classes; cell line not given; read-out: CDK12 degradation Activity
T1 sequence (Q9NYV4 whole entry): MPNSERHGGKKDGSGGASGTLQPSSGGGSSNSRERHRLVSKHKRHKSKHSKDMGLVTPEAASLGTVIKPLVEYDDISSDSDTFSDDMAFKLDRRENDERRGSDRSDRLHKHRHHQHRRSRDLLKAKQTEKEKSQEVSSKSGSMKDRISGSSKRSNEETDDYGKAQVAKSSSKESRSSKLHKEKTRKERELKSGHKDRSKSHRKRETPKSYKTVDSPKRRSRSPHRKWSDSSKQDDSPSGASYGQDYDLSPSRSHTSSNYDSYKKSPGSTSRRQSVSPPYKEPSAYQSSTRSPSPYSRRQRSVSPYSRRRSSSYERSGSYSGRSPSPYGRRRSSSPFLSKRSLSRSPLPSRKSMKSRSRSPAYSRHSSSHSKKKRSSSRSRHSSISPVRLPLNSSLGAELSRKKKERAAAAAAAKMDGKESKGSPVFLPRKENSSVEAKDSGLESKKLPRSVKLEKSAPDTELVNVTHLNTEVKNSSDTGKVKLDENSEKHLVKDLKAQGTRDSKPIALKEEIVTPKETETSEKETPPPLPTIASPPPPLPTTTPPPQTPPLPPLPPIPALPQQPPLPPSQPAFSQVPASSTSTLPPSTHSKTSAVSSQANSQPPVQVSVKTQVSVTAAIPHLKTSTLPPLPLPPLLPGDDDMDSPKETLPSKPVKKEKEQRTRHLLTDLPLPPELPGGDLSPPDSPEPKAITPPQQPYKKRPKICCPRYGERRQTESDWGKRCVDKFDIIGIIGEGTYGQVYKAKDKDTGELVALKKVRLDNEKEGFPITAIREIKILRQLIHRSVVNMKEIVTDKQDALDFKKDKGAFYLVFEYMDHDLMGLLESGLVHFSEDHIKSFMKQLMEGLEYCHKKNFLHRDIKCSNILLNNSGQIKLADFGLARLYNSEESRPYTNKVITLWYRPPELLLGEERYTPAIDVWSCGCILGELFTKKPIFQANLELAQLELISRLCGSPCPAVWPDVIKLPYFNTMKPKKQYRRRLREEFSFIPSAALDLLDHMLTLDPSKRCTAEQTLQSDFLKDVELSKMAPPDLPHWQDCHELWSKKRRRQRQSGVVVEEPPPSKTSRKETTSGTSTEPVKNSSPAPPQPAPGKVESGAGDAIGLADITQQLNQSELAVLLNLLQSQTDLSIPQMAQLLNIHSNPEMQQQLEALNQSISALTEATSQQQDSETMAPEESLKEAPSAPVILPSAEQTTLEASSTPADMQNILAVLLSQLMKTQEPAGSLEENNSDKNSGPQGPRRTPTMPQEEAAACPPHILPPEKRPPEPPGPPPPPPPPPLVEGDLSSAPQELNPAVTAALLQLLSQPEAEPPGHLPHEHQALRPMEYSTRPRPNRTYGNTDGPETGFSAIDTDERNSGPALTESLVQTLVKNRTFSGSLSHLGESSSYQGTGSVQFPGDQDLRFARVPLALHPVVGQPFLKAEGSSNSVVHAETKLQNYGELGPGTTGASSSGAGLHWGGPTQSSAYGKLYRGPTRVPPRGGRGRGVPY
T1 sequence (O75909 whole entry partner): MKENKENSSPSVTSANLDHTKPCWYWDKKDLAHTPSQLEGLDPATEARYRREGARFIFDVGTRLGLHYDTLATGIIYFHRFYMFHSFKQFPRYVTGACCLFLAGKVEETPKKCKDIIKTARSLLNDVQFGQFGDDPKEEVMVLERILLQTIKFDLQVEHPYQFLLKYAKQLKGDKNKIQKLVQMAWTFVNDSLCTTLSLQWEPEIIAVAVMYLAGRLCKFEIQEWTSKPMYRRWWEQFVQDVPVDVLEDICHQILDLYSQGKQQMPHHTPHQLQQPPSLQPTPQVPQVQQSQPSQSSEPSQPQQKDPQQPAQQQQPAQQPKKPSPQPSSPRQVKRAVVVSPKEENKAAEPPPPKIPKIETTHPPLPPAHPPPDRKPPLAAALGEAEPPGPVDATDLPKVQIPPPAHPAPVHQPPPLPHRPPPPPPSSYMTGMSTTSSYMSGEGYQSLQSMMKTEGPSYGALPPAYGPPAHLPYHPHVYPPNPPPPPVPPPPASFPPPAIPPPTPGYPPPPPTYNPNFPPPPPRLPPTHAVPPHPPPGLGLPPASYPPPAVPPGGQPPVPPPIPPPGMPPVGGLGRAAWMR

CDK13 [2] = molecular target: T2, CDK13 (Homo sapiens, UniProt Q14004); assay: Western blot degradation of CDK13 (Example 3); conditions: DC50 classes; cell line not given; read-out: CDK13 degradation Activity
T2 sequence (Q14004 whole entry): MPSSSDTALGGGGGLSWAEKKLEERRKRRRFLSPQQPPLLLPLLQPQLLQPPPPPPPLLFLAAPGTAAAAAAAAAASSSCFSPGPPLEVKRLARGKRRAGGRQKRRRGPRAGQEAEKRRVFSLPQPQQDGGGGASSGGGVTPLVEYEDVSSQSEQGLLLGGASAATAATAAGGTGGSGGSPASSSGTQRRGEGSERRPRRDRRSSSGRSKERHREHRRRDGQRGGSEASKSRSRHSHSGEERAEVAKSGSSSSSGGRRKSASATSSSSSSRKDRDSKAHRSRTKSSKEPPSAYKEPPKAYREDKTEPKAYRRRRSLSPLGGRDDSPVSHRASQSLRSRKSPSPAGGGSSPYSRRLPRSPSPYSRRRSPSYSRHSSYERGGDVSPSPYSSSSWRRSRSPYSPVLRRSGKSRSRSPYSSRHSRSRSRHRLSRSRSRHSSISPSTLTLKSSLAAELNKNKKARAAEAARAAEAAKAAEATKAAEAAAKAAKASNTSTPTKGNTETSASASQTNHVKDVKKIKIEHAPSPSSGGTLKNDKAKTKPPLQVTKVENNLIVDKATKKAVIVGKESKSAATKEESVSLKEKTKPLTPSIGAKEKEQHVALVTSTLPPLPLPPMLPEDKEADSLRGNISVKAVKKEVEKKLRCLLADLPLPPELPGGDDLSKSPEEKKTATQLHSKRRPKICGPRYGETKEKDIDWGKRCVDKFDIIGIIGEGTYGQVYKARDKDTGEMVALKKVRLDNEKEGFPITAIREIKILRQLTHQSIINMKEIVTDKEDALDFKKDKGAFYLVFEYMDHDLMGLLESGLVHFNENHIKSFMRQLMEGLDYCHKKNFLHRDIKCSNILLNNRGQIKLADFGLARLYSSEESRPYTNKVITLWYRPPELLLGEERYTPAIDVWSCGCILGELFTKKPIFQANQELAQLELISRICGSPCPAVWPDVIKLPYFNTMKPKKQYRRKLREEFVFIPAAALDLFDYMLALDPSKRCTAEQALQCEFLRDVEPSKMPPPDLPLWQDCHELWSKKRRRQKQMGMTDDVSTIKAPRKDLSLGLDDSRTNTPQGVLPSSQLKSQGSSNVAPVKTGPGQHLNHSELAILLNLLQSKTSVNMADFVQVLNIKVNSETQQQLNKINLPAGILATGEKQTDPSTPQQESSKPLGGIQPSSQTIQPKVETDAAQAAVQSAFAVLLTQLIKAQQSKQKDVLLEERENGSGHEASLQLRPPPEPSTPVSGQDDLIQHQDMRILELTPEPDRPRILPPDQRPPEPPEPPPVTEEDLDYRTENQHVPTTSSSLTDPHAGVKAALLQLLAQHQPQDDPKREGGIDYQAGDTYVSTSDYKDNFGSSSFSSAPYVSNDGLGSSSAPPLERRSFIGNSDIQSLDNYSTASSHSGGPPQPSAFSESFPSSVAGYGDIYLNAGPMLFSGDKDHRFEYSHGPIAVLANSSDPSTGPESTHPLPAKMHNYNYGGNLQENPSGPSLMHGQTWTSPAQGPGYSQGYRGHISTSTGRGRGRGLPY
T2 sequence (O75909 whole entry partner): as the sequence (O75909 whole entry partner) above

CDK12 [3] = molecular target: T1, CDK12; assay: Western blot degradation of CDK12 (Example 2); conditions: DC50 classes, cell line not given; for DC50: read-out: CDK12 degradation Activity
Experimental: (§1) Western blot was used to determine the degradation of CDK12/13 protein in leukemia cells KASUMI-1, MV4-11, and Jurkat. The two compounds with the best degradation effects were further validated for their ability to degrade CDK12/13 protein in breast cancer cells MDA-MB-231 using a concentration gradient.
(§2) • Cell lines: KASUMI-1, MV4-11, Jurkat, or MDA-MB-231 • Culture medium: DMEM/RIPM-1640+10% Hyclone serum • Compound dissolution method: Compounds were dissolved in DMSO to prepare a 50 mM stock solution, and then diluted to the corresponding concentrations.
(§3) (1) In vitro cell culture: The selected cells were cultured in a 37 °C constant temperature incubator with 5% CO2. Once the cell density reached 70-90%, they were passaged for subsequent experiments.
(§4) (2) Cell seeding: Cells were digested, and the cell suspension was transferred to a 1.5 mL Eppendorf tube. After centrifugation at 1,000 rpm for 5 min, the cells were resuspended in 2 mL of culture medium and counted. The cell suspension was seeded in a 24-well plate at a density of 200,000 cells per well and allowed to adhere for 8-12 h.
(§5) (3) Compound treatment: The 50 mM compound stock solution was diluted with cell culture medium to a final concentration of 0.01 μM-3 μM. Cells were incubated in a 37 °C incubator with 5% CO2 for 3 h-48 h. The DMSO group served as the negative control.
(§6) At the end of the treatment time, the cells were collected and washed once with PBS. An appropriate volume of 4% SDS was added to lyse the cells, and the mixture was sonicated until no longer viscous. After centrifugation at 12,000 rpm at room temperature for 30 min, the supernatant was transferred to a new EP tube for protein quantification.
(§7) The exposure results were quantitatively analyzed using Image J software. First, the grayscale values of the bands were calculated using Image J. Then, the grayscale value of the target protein was divided by the grayscale value of the internal reference protein for normalization. The calculation formula is: […]
(§8) Where A is the grayscale value and D is the degradation rate.
(§9) In the figures, CDK12 and CDK13 are the target proteins under study, and β-Actin and GAPDH are the internal reference proteins. Internal reference proteins are used to indicate the total protein amount in each experimental group for quantitative analysis.

CDK13 [4] = molecular target: T2, CDK13; assay: Western blot degradation of CDK13 (Example 2); conditions: DC50 classes, cell line not given; for DC50: read-out: CDK13 degradation Activity
Experimental: as §1, §2, §3, §4, §5, §6, §7, §8, §9

| DC50 (CDK12 [3]) [µM] | DC50 (CDK13 [4]) [µM] | SMILES | also measured |
| --- | --- | --- | --- |
|  |  | CC(=O)N(c1ccc(-c2cnc(OCCOCC(=O)N[C@H](C(=O)N3C[C@H](O)C[C@H]3C(=O)N[C@@H](C)c3ccc(-c4scnc4C)cc3)C(C)(C)C)nc2)cc1)[C@H]1CC[C@H](Nc2ncc3ccccc3n2)CC1 [Formula 132, (2S,4R)-1-((S)-3,3-dimethyl-2-(2-(2-((5-(4-(N-((1R,4R)-4-(quinazolin-2-ylamino)cyclohexyl)acetamido)phenyl)pyrimidin-2-yl)oxy)ethoxy)acetamido)butanoyl)-4-hydroxy-N—((S)-1-(4-(4-methylthiazol-5-yl)phenyl)ethyl)pyrrolidine-2-carboxamide] | DC50 (CDK12 [1]): 0.5 to 1 µM; DC50 (CDK13 [2]): 0.5 to 1 µM |
|  |  | CC(=O)N(c1ccc(-c2cnc(N3CCN(c4cc5c(cc4F)C(=O)N(C4CCC(=O)NC4=O)C5=O)CC3)nc2)cc1)[C@H]1CC[C@H](Nc2ncc3ccccc3n2)CC1 (stereo partly drawn) [Formula 114, N-(4-(2-(4-(2-(2,6-dioxopiperidin-3-yl)-6-fluoro-1,3-dioxoisoindolin-5-yl)piperazin-1-yl)pyrimidin-5-yl)phenyl)-N-((1R,4R)-4-(quinazolin-2-ylamino)cyclohexyl)acetamide] | DC50 (CDK12 [1]): 1 to 3 µM; DC50 (CDK13 [2]): 1 to 3 µM |
|  |  | CC(=O)N(c1ccc(-c2cnn(C3CCN(c4ccc5c(c4)C(=O)N(C4CCC(=O)NC4=O)C5=O)CC3)c2)cc1)[C@H]1CC[C@H](Nc2ncc3ccccc3n2)CC1 (stereo partly drawn) [Formula 117, N-(4-(1-(1-(2-(2,6-dioxopiperidin-3-yl)-1,3-dioxoisoindolin-5-yl)piperidin-4-yl)-1H-pyrazol-4-yl)phenyl)-N-((1R,4R)-4-(quinazolin-2-ylamino)cyclohexyl)acetamide] | DC50 (CDK12 [1]): 1 to 3 µM; DC50 (CDK13 [2]): 0.5 to 1 µM |
|  |  | CC(=O)N(c1ccc(N2CCC3(CC2)CCN(c2ccc4c(c2)C(=O)N(C2CCC(=O)NC2=O)C4=O)C3)cc1)[C@H]1CC[C@H](Nc2ncc3ccccc3n2)CC1 (stereo partly drawn) [Formula 119, N-(4-(2-(2-(2,6-dioxopiperidin-3-yl)-1,3-dioxoisoindolin-5-yl)-2,8-diazaspiro[4.5]decan-8-yl)phenyl)-N-((1R,4R)-4-(quinazolin-2-ylamino)cyclohexyl)acetamide] | DC50 (CDK12 [1]): 1 to 3 µM |
| 3 to 10 | 3 to 10 | Cc1ncsc1-c1ccc([C@H](C)NC(=O)[C@@H]2C[C@@H](O)CN2C(=O)[C@@H](NC(=O)N2CCC3(CC2)CCN(c2ccc(N(C(=O)NCc4ccccc4)[C@H]4CC[C@H](Nc5ccc(C#N)cn5)CC4)cc2)CC3)C(C)(C)C)cc1 [Formula 51] |  |
| 3 to 10 | 3 to 10 | Cc1ncsc1-c1ccc([C@H](C)NC(=O)[C@@H]2C[C@@H](O)CN2C(=O)[C@@H](NC(=O)COCCOCCOCCOCCOc2ccc(-c3ccc(N(C(=O)NCc4ccccc4)[C@H]4CC[C@H](Nc5ccc(C#N)cn5)CC4)cc3)cn2)C(C)(C)C)cc1 [Formula 4] |  |
| 1 to 3 | 3 to 10 | Cc1ncsc1-c1ccc([C@H](C)NC(=O)[C@@H]2C[C@@H](O)CN2C(=O)[C@@H](NC(=O)COCCN2CCN(c3ccc(N(C(=O)NCc4ccccc4)[C@H]4CC[C@H](Nc5ccc(C#N)cn5)CC4)cc3)CC2)C(C)(C)C)cc1 [Formula 7] |  |
|  |  | Cc1ncsc1-c1ccc([C@H](C)NC(=O)[C@@H]2C[C@@H](O)CN2C(=O)[C@@H](NC(=O)COCCn2cc(-c3ccc(N(C(=O)NCc4ccccc4)[C@H]4CC[C@H](Nc5ccc(C#N)cn5)CC4)cc3)ccc2=O)C(C)(C)C)cc1 [Formula 56] | CDK12 degradation Activity (CDK12 [3]): −; CDK13 degradation Activity (CDK13 [4]): − |
|  |  | Cc1ncsc1-c1ccc([C@H](C)NC(=O)[C@@H]2C[C@@H](O)CN2C(=O)[C@@H](NC(=O)COCCOCCOCCn2cc(-c3ccc(N(C(=O)NCc4ccccc4)[C@H]4CC[C@H](Nc5ccc(C#N)cn5)CC4)cc3)ccc2=O)C(C)(C)C)cc1 [Formula 58] | CDK12 degradation Activity (CDK12 [3]): −; CDK13 degradation Activity (CDK13 [4]): − |
| 0.5 to 1 | 1 to 3 | N#Cc1ccc(N[C@H]2CC[C@H](N(C(=O)NCc3ccccc3)c3ccc(N4CCN(CCOCCNc5cccc6c5C(=O)N(C5CCC(=O)NC5=O)C6=O)CC4)cc3)CC2)nc1 (stereo partly drawn) [Formula 38] |  |
| 1 to 3 | 0.5 to 1 | Cc1ncsc1-c1ccc([C@H](C)NC(=O)[C@@H]2C[C@@H](O)CN2C(=O)[C@@H](NC(=O)COCCOCCOc2ccc(-c3ccc(N(C(=O)NCc4ccccc4)[C@H]4CC[C@H](Nc5ccc(C#N)cn5)CC4)cc3)cn2)C(C)(C)C)cc1 [Formula 2] |  |
| 3 to 10 |  | Cc1ncsc1-c1ccc([C@H](C)NC(=O)[C@@H]2C[C@@H](O)CN2C(=O)[C@@H](NC(=O)CC2CN(c3ccc(-c4ccc(N(C(=O)NCc5ccccc5)[C@H]5CC[C@H](Nc6ccc(C#N)cn6)CC5)cc4)cn3)C2)C(C)(C)C)cc1 [Formula 29] | CDK13 degradation Activity (CDK13 [4]): − |
| 0.5 to 1 | 1 to 3 | N#Cc1ccc(N[C@H]2CC[C@H](N(C(=O)NCc3ccccc3)c3ccc(-c4ccc(=O)n(CCOCCOCCOCCOCCNc5cccc6c5C(=O)N(C5CCC(=O)NC5=O)C6=O)c4)cc3)CC2)nc1 (stereo partly drawn) [Formula 49] |  |
| 1 to 3 | 1 to 3 | Cc1ncsc1-c1ccc([C@H](C)NC(=O)[C@@H]2C[C@@H](O)CN2C(=O)[C@@H](NC(=O)C2CCN(C(=O)C3CCN(c4ccc(-c5ccc(N(C(=O)NCc6ccccc6)[C@H]6CC[C@H](Nc7ccc(C#N)cn7)CC6)cc5)cn4)CC3)CC2)C(C)(C)C)cc1 [Formula 21] |  |
| 3 to 10 |  | Cc1ncsc1-c1ccc([C@H](C)NC(=O)[C@@H]2C[C@@H](O)CN2C(=O)[C@@H](NC(=O)C2CC3(CC(Nc4ccc(N(C(=O)NCc5ccccc5)[C@H]5CC[C@H](Nc6ccc(C#N)cn6)CC5)cc4)C3)C2)C(C)(C)C)cc1 (stereo partly drawn) [Formula 27] | CDK13 degradation Activity (CDK13 [4]): − |
| 1 to 3 | 1 to 3 | Cc1ncsc1-c1ccc([C@H](C)NC(=O)[C@@H]2C[C@@H](O)CN2C(=O)[C@@H](NC(=O)COCCOCCOCCOCCn2cc(-c3ccc(N(C(=O)NCc4ccccc4)[C@H]4CC[C@H](Nc5ccc(C#N)cn5)CC4)cc3)ccc2=O)C(C)(C)C)cc1 [Formula 59] |  |
| 1 to 3 | 0.5 to 1 | N#Cc1ccc(N[C@H]2CC[C@H](N(C(=O)NCc3ccccc3)c3ccc(-c4ccc(=O)n(CCOCCNc5cccc6c5C(=O)N(C5CCC(=O)NC5=O)C6=O)c4)cc3)CC2)nc1 (stereo partly drawn) [Formula 46] |  |
| 0.5 to 1 | 0.1 to 0.5 | Cc1ncsc1-c1ccc([C@H](C)NC(=O)[C@@H]2C[C@@H](O)CN2C(=O)[C@@H](NC(=O)CN2CCC(COc3ccc(-c4ccc(N(C(=O)NCc5ccccc5)[C@H]5CC[C@H](Nc6ccc(C#N)cn6)CC5)cc4)cn3)CC2)C(C)(C)C)cc1 [Formula 12] |  |
| 3 to 10 |  | Cc1ncsc1-c1ccc([C@H](C)NC(=O)[C@@H]2C[C@@H](O)CN2C(=O)[C@@H](NC(=O)CN2CC(Oc3ccc(-c4ccc(N(C(=O)NCc5ccccc5)[C@H]5CC[C@H](Nc6ccc(C#N)cn6)CC5)cc4)cn3)C2)C(C)(C)C)cc1 [Formula 14] | CDK13 degradation Activity (CDK13 [4]): − |
|  |  | N#Cc1ccc(N[C@H]2CC[C@H](N(C(=O)NCc3ccccc3)c3ccc(-c4ccc(OCCOCCOCCOCCOCCOCCNc5cccc6c5C(=O)N(C5CCC(=O)NC5=O)C6=O)nc4)cc3)CC2)nc1 (stereo partly drawn) [Formula 36] | CDK12 degradation Activity (CDK12 [3]): −; CDK13 degradation Activity (CDK13 [4]): − |
| 0.5 to 1 | 0.5 to 1 | Cc1ncsc1-c1ccc([C@H](C)NC(=O)[C@@H]2C[C@@H](O)CN2C(=O)[C@@H](NC(=O)CC2CCN(c3ccc(-c4ccc(N(C(=O)NCc5ccccc5)[C@H]5CC[C@H](Nc6ccc(C#N)cn6)CC5)cc4)cn3)C2)C(C)(C)C)cc1 (stereo partly drawn) [Formula 30] |  |
| 1 to 3 | 0.5 to 1 | N#Cc1ccc(N[C@H]2CC[C@H](N(C(=O)NCc3ccccc3)c3ccc(-c4ccc(OCCOCCNc5cccc6c5C(=O)N(C5CCC(=O)NC5=O)C6=O)nc4)cc3)CC2)nc1 (stereo partly drawn) [Formula 32] |  |

| SMILES | DC50 (CDK12 [3]) [µM] | DC50 (CDK13 [4]) [µM] | also measured |
| --- | --- | --- | --- |
| Cc1ncsc1-c1ccc([C@H](C)NC(=O)[C@@H]2C[C@@H](O)CN2C(=O)[C@@H](NC(=O)CN2CCN(c3ncc(-c4ccc(N(C(=O)NCc5ccccc5)[C@H]5CC[C@H](Nc6ccc(C#N)cn6)CC5)cc4)cn3)CC2)C(C)(C)C)cc1 (racemic) [Formula 81] | < 0.1 | < 0.1 |  |
